Patent US10308649B2, “Compounds and methods to suppress autoimmune response” (Oregon State University, priority 2014, dated 2019)

Assay: Clinical chemistry profile from toxicology screen of NOD mice
Format: in vivo, mouse
Details: 20 weeks of age
Source text: The results listed in Table 1 illustrate an absence of clinical signs of toxicity after prolonged treatment with AHRL1. Table 1 lists the results of a clinical chemistry profile from a toxicology screen of the AHRL1 treated, TCDD treated, and vehicle treated mice. The clinical chemistry panel includes tests for substances in the blood that have biological functions, metabolites or waste products, and substances that indicate cell damage or disease. The concentrations of the substances listed in Table 1 were measured at 20 weeks of age. The concentrations are reported as milligrams per deciliter (mg/dl), grams per deciliter (g/dl), units per liter (U/L), or milli equivalents per liter (mEq/L).
FIGS. 18a-18r show the clinical chemistry profile from a toxicology screen for three groups: AHRL1 treated mice, vehicle treated mice, and untreated mice. For the test group, the mice were treated with AHRL1. The vehicle given was the carrier for the AHRL1 compound. The carrier included 30% DMSO, 20% Cremaphor, and 50% Peceol. The mice were tested after 12 weeks of exposure. The clinical chemistry panel includes tests for substances in the blood that have biological functions, metabolites or waste products, and substances that indicate cell damage or disease.

In the case of `Clc1cc2c(cc1Cl)Oc1cc(Cl)c(Cl)cc1O2` [TCDD, 2,3,7,8-tetrachlorodibenzo-p-dioxin], the “Alanine Aminotransferase (ALT)” value is reported as 24.0 ± 2.5 U/L, the Albumin is reported as 3.4 ± 0.1 g/dL and the “Alkaline Phosphatase” value is reported as 80.0 ± 14.7 U/L. For the same molecule, the “Anion Gap” value was 34.0 ± 1.2 mEq/L, the “Bicarbonate (tCO2)” value was 18.6 ± 1.4 mEq/L and the “Bilirubin, Total” value was 0.43 ± 0.64 mg/dL. For the same molecule, the “Blood Urine Nitrogen (BUN)” value was 20.0 ± 2.7 mg/dL, the Calcium was 10.8 ± 0.4 mg/dL and the Chloride was 109.5 ± 1.7 mEq/L. The Cholesterol was 91.9 ± 5.1 mg/dL, the Creatinine was 0.3 ± 0.1 mg/dL and the “Creatinine Kinase (CK)” value was 398.3 ± 248.7 U/L. The “Gamma-glutamyl transferase (GGT)” value was 0.0 ± 0.0 U/L, the Phosphorous was 8.2 ± 1.2 mg/dL and the Potassium was 9.7 ± 0.4 mEq/L. For the same molecule, the Sodium was 151.9 ± 2.4 mEq/L and the “Total Protein” value was 5.6 ± 0.2 g/dL.
